Experimental findings from PMC10349806 (Nature Communications, 2023) are described below.

Structures are written as SMILES. Several values for one entry are separate records, joined by “and”; a condition that tells them apart may be missing. Equal values may be shown once.

This assay deals with T1, PfCRT variant F322A (Plasmodium falciparum, UniProt Q9N623, A220S/F322A/I356T/K76T/M74I/N326S/N75E/Q271E/R371I).
T1 sequence (Q9N623 1-424 M74I/N75E/K76T/A220S/Q271E/F322A/N326S/I356T/R371I): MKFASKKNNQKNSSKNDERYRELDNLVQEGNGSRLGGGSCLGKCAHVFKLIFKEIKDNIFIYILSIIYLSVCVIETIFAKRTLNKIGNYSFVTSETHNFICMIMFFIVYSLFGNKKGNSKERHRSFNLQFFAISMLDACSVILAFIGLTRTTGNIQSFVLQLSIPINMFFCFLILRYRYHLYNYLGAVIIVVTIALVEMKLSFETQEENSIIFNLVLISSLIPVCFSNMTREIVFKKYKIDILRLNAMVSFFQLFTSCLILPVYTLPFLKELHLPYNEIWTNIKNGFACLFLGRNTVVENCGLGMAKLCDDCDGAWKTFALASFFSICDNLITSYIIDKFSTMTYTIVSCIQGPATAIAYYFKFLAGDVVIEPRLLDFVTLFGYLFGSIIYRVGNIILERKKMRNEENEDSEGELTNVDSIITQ
The assay is described as follows: CQ uptake assay, oocytes expressing F322A. Type of assay: cell-based. Here is the method: Site-directed mutagenesis of PfCRT^Dd2 was performed as described using the megaprimer method with overlap extension[21],[54]. The primer pairs used are listed in Supplementary Table 6. Please note that a codon-optimized and oocyte-adapted version of PfCRT^Dd2 was used[22] (Supplementary Fig. 16). The resulting DNA fragment was cloned into the SP64T expression vector and verified by sequencing.
Oocytes were obtained as described previously. Briefly, adult (>2 years old) female X. laevis frogs (NASCO) were anesthetized in a cooled solution of ethyl 3-amino benzoate methanesulfonate (0.1%, w/v), followed by a surgical removal of parts of the ovary. The ovary lobes were carefully dissected and small pieces of oocytes were incubated in Ca^2+-free ND96 buffer (96 mM NaCl, 2 mM KCl, 1 mM MgCl2 buffered with 5 mM HEPES/NaOH, pH 7.5) supplemented with collagenase D (0.1%, w/v; Roche), BSA (0.5%, w/v), and 9 mm Na2HPO4 at 18 °C for 14-16 h while gentle shaking. After incubation, the oocytes were carefully washed several times with ND96 buffer (96 mM NaCl, 2 mM KCl, 1.8 mM CaCl2, 1 mM MgCl2 buffered with 5 mM HEPES/NaOH, pH 7.5) supplemented with 100 mg l^−1 gentamycin). Defolliculated and healthy-looking stage V-VI oocytes were manually selected for RNA microinjection. The RNA was generated as following: The codon-optimized sequences of PfCRT variants were cloned into the pSP64T expression vector. After vector linearization using the restriction endonucleases BamHI or SalI (New England Biolabs), transcription was performed using the in vitro SP6 mMessage mMachine Kit (Ambion)[34]. The obtained RNA was kept at −80 °C and diluted with nuclease-free water to a concentration of 0.6 μg μl^−1. Precision-bore glass capillary tubes (3.5-inch glass capillaries; Drummond Scientific Co.) were pulled on a vertical puller (P-87 Flaming/Brown micropipette puller, Sutter Instrument Co.), graduated, and placed on a microinjector (Nanoject II Auto-Nanoliter Injector, Drummond Scientific Co.). 50 nl of nuclease-free water alone (control oocytes) or 50 nl of 0.6 μg μl^−1 RNA were injected under stereomicroscopic control. Injected oocytes were incubated for 46–72 h at 18 °C with twice-daily buffer changes before usage in experiments.
Drug uptake assays were performed as described previously[21],[22],[24],[34]. […] The direction of radio-labeled drug transport is here from the mostly acidic extracellular solution (pH 4.5 or 6.0, as indicated) into the oocyte cytosol (pH ∼ 7.2), which corresponds to the efflux of drug from the acidic digestive vacuole (pH 5.2) into the parasite cytoplasm (pH 7.2). The topology of PfCRT in the oolemma is such that both the N- and C-terminus face the extracellular milieu[3],[22]. In the parasite, the N- and C-terminus face the lumen of the digestive vacuole. CQ uptake kinetics were performed by incubating oocytes in ND96 buffer adjusted to a pH of 4.5, 5.0, 5.5, or 6.0 and supplemented with 50 nM [^3H]CQ and one of 7 different CQ concentrations (10 µM, 50 µM, 100 µM, 200 µM, 300 µM, 400 µM, 500 µM CQ). The reaction was stopped at the 60 min time point, which is in the linear uptake range[22],[34] (Supplementary Fig. 17). For determination of the amount of drug uptake for each oocyte, the reaction medium was removed and the oocytes were washed three times with 2 ml of ice-cold ND96 buffer. Each oocyte was individually transferred to a scintillation vial containing 5% sodium dodecyl sulfate (200 μl) for lysis. The radioactivity of each sample was measured using a liquid scintillation analyzer Tri-Carb 4910 TR (PerkinElmer). Oocytes that were injected with water instead of RNA were analyzed in parallel, representing the uptake of a drug by diffusion and/or endogenous permeation pathways. The resulting value represents the “background“ level of drug accumulation in oocytes (in-depth discussion in[22]). […]

The mark [1] stands for this setting: F322A, 50 µM CQ, 1 h, mean ± SEM.

Consider `CCN(CC)CCCC(C)Nc1ccnc2cc(Cl)ccc12` (stereo not drawn) [CQ, chloroquine], for which, under setting [1], the “Activity at pH 4.5” value is on record as 0.72 ± 0.12 pmol h-1 oocyte-1 and the “Activity at pH 6.0” value stood at 1.05 ± 0.12 pmol h-1 oocyte-1. Where the note is “F322A, CQ transport at pH 4.5 / pH 6.0”, this compound gave a R-value of 0.68 ± 0.04. Besides, the “F322A transport activity pH 4.5” value (pH 4.5, single replicates, Fig 1d left) was 0.55 pmol oocyte-1 h-1 and 1.12 pmol oocyte-1 h-1 and 0.61 pmol oocyte-1 h-1 and 0.60 pmol oocyte-1 h-1. The “F322A R-value” (pH 4.5 vs pH 6.0, Fig 1d left) is 0.73 and 0.78 and 0.63 and 0.59. Further, the “F322A transport activity pH 6.0” value (pH 6.0, single replicates, Fig 1d left) is 0.75 pmol oocyte-1 h-1 and 1.44 pmol oocyte-1 h-1 and 0.97 pmol oocyte-1 h-1 and 1.02 pmol oocyte-1 h-1.
